Laboratory results as given in the supplement of paper PMC10307832.

Key:
Assay in all cases: relative viability (nuclei count vs DMSO), 5 days (fraction); higher = more cells survive
[1] = test system: A-427
Procedure, shortened: (§1)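 Lung cancer cell lines were pin-tool dosed in 1536-well plates on the day after seeding, with either a lone drug or a fixed anchor-drug dose plus five library-drug doses (not always all listed) in √10 steps. Nuclei were counted on 4× images after 5 days. Relative viability is the ratio of treated-well to vehicle-well nuclei counts, with each value a median of duplicate plates.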

[2] = test system: ABC-1
Procedure, shortened: as §1

[3] = test system: EMC-BAC-2
Procedure, shortened: as §1

[4] = test system: HARA
Procedure, shortened: as §1

[5] = test system: HOP-62
Procedure, shortened: as §1

[6] = test system: LK-2
Procedure, shortened: as §1

[7] = test system: LXF-289
Procedure, shortened: as §1

[8] = test system: NCI-H1792
Procedure, shortened: as §1

[9] = test system: NCI-H1944
Procedure, shortened: as §1

[10] = test system: NCI-H1993
Procedure, shortened: as §1

[11] = test system: NCI-H2009
Procedure, shortened: as §1

CCN(CC)CCCCNc1ncc2cc(-c3cc(OC)cc(OC)c3)c(NC(=O)NC(C)(C)C)nc2n1 + Nc1ncn([C@H]2C[C@H](O)[C@@H](CO)O2)c(=O)n1 [Decitabine] (partner 2 µM)
relative viability ([1]; first compound 0.01 µM): 0.626
relative viability ([1]; first compound 0.03162 µM): 0.506
relative viability ([1]; first compound 0.1 µM): 0.518
relative viability ([1]; first compound 0.3162 µM): 0.548
relative viability ([1]; first compound 1 µM): 0.524
relative viability ([2]; first compound 0.03162 µM): 1.17
relative viability ([2]; first compound 0.1 µM): 1.32
relative viability ([2]; first compound 0.3162 µM): 1.06
relative viability ([2]; first compound 1 µM): 1.05
relative viability ([3]; first compound 0.03162 µM): 1
relative viability ([3]; first compound 0.1 µM): 0.938
relative viability ([3]; first compound 0.3162 µM): 0.948
relative viability ([3]; first compound 1 µM): 0.876
relative viability ([4]; first compound 0.01 µM): 0.625
relative viability ([4]; first compound 0.03162 µM): 0.557
relative viability ([4]; first compound 0.1 µM): 0.636
relative viability ([4]; first compound 0.3162 µM): 0.649
relative viability ([4]; first compound 1 µM): 0.317
relative viability ([5]; first compound 0.01 µM): 0.243
relative viability ([5]; first compound 0.03162 µM): 0.207
relative viability ([5]; first compound 0.1 µM): 0.208
relative viability ([5]; first compound 0.3162 µM): 0.207
relative viability ([5]; first compound 1 µM): 0.268
relative viability ([6]; first compound 0.01 µM): 0.305
relative viability ([6]; first compound 0.03162 µM): 0.268
relative viability ([6]; first compound 0.1 µM): 0.192
relative viability ([6]; first compound 0.3162 µM): 0.217
relative viability ([6]; first compound 1 µM): 0.175
relative viability ([7]; first compound 0.01 µM): 0.336
relative viability ([7]; first compound 0.03162 µM): 0.364
relative viability ([7]; first compound 0.1 µM): 0.363
relative viability ([7]; first compound 0.3162 µM): 0.424
relative viability ([7]; first compound 1 µM): 0.377
relative viability ([8]; first compound 0.01 µM): 0.522
relative viability ([8]; first compound 0.03162 µM): 0.552
relative viability ([8]; first compound 0.1 µM): 0.536
relative viability ([8]; first compound 0.3162 µM): 0.489
relative viability ([8]; first compound 1 µM): 0.479
relative viability ([9]; first compound 0.01 µM): 0.489
relative viability ([9]; first compound 0.03162 µM): 0.435
relative viability ([9]; first compound 0.1 µM): 0.427
relative viability ([9]; first compound 0.3162 µM): 0.489
relative viability ([9]; first compound 1 µM): 0.477
relative viability ([10]; first compound 0.01 µM): 0.671
relative viability ([10]; first compound 0.03162 µM): 0.584
relative viability ([10]; first compound 0.1 µM): 0.508
relative viability ([10]; first compound 0.3162 µM): 0.757
relative viability ([10]; first compound 1 µM): 0.589
relative viability ([11]; first compound 0.01 µM): 0.401
relative viability ([11]; first compound 0.03162 µM): 0.39
